Laboratory results published in patent publication US10449183B2, “Methods for inhibiting preterm labor and uterine contractility disorders and preventing cervical ripening” (DIGNITY HEALTH, priority 2010, dated 2019).
“Also recorded” adds a separate entry of the source. Read-outs that look alike come from different tables or passages of the source.

Experiments:
[1] = system: cervix of pregnant rats; assay: Cervical ripening assessed in vivo by collagen light-induced fluorescence (LIF) with the collascope; parameters: species or system Sprague-Dawley rats
Excerpt: Nonpregnant and timed-pregnant Sprague-Dawley rats (200-250 g) from Charles-River Laboratories (Wilmington, Mass., USA) were delivered to animal care facilities on day 12 of gestation (day 1 being the day when a sperm plug was observed). The animals were housed separately, with free access to food and water and maintained on a constant 12-hour light-dark cycle. Control pregnant rats were spontaneously delivering on day 22 and 23 of gestation. For the measurements with the collascope the animals were anaesthetized (interperitoneal (i.p). injection) with a combination of xylazine (Gemini, Burns Veterinary Supply Inc, Rockville Center, N.Y., USA) and ketamine HCl (Ketaset; Fort Dodge Laboratories Inc, Fort Dodge, Iowa, USA). The animals were randomly allocated to one of the groups and sacrificed by carbon dioxide inhalation on day 3, 5, 7 and 10 postpartum or on day 25 of pregnancy in the groups with delayed delivery. All procedures were approved by the Animal Care and Use Committee of the St. Joseph's Hospital and Medical Center in Phoenix.
Prior to any treatment LIF measurements were made in control rats throughout pregnancy and postpartum to estimate the LIF profile during gestation (see FIG. 1). Pregnant rats (N=6/group) were treated (see FIG. 2), when not otherwise mentioned (see FIG. 3), from day 13 of pregnancy until delivery. Single daily treatments were performed at 8 a.m. and twice a day treatments at 8 a.m. and 8 p.m. All single injections (4 mg P4, 10 mg 17P, 2 mg promegestone (R5020)) were by the subcutaneous route (s.c.) in sesame oil (0.2 ml), which was also used for the controls. Vaginal gels were applied twice a day with a blunt ball-top needle deep into the vagina. Crinone was used for the P4 vaginal group (equivalent volumes of Crinone were used for 2-15 mg P4/treatment), all data presented show the results of the highest dose (total daily dose of 30 mg P4=⅓ of a applicator of 8% Crinone that contains 90 mg P4). For the vaginal promegestone (R5020) group micronized promegestone (R5020) (1 mg/treatment) was mixed into 0.18 ml of Replens. The control rats for the vaginal groups were treated with Replens (0.18 ml/treatment). For oral P4 treatments (15 mg, bid, vehicle sesame oil or H2O, volume 1 ml) gavage was used. For topical P4 treatment (15 mg, bid, P4 in 1 ml sesame oil, fish oil or in Replens) the drug was applied on the back of animals that were shaved on day 13, 17 and 21. In some animals (N=6) RU-486 (3 mg in 0.2 ml sesame oil) was injected subcutaneously once on day 16 of gestation.
The amount of cervical collagen was evaluated in vivo (only in group subcutaneously P4, vaginal P4, subcutaneously 17P, vaginal promegestone (R5020), subcutaneously RU-486) by measurement of the auto-fluorescent properties of cross-linked collagen with a new prototype of an instrument, termed collascope (Reproductive Research Technologies, Houston, Tex., USA), as used previously with an earlier prototype.
After insertion of a small speculum into the vagina of the anesthetized animal, the optical probe of the collascope was placed on the surface of the exocervix. […] The exposure time for excitation was 100 msec. The average of 20 measurements of the detected fluorescent intensity (photon count) at 390 nm was used for each animal at any given time. Measurements of cervical light-induced fluorescence (LIF) were performed on nonpregnant animals once and in pregnant animals every other day starting at day 13 of gestation until delivery and on postpartum day 3 and/or postpartum day 5 (see FIGS. 2 and 3), and for some animals also on postpartum days 7 and 10 (see FIGS. 1 and 3).
The cervical LIFs obtained at different times of gestation (FIG. 1) were compared using one-way analysis of variance (ANOVA) and multiple pairwise comparison procedures (Holm-Sidak). […]

[2] = system: myometrium; settings: P4 at concentrations equivalent to those present in the placenta and uterus; cited from earlier work
[3] = system: human myometrium; assay: Human myometrial contractility in vitro (organ chamber / muscle bath); assay type: cell-based
Excerpt: The inventors tested whether a soluble form of progesterone would inhibit human myometrial contractility in vitro (FIG. 7). FIG. 7 is a schematic drawing of the muscle bath that is used to measure uterine contractility in vitro. The system consists of a water jacketed chamber to maintain temperature at 37 degrees and an inner chamber where the tissue is suspended in Krebs'-Ringer solution and bubbled with air. The tissue is connected to a force transducer and the signals from the transducer are amplified, stored and analyzed by a data acquisition system. The inventors examined the direct effects of various tocolytics on uterine contractility with and without progesterone, as it was possible that a tocolytic used with progesterone would produce additive, synergistic or antagonistic action on contractility.

[4] = cited from earlier work

With CC(=O)[C@H]1CC[C@H]2[C@@H]3CCC4=CC(=O)CC[C@]4(C)[C@H]3CC[C@]12C [P4, progesterone] the “cervical LIF, day 25 (delayed delivery) in P4 injection group compared to control animals at day 21” value ([1]; P4 4 mg s.c. daily from day 13) was “no difference (P<0.05)”, the “cervical LIF / cervical ripening compared with vehicle controls” value ([1]; P4 4 mg s.c. daily in sesame oil from day 13 of pregnancy) was “cervix is rigid; also recorded: significantly (P<0.05) higher; also recorded: longest effect on delaying cervical ripening; also recorded: also prevents further ripening on day 21; also recorded: can only delay, but not completely inhibit cervical ripening; also recorded: delayed but not entirely blocked during the final days of gestation” and the “cervical LIF / cervical ripening compared with vehicle controls” value ([1]; vaginal P4 15 mg bid (Crinone) from day 13) was “no significant differences (P>0.05); also recorded: no effect on cervical ripening; also recorded: no significant differences are observed at any time”. The spontaneous myometrial contractility [2] was “inhibits spontaneous myometrial contractility”, the “effect on human myometrial contractions” value ([3]; 10^−4M progesterone) was “inhibited myometrial contractions” and the “contractile inhibition of the combination” value ([3]; P4 (10^-5 M) with indomethacin (IND), term, not in labor) was “increase contractile inhibition, by additive or synergistic actions”. The “contractile inhibition of the combination” value ([3]; P4 (10^-5 M) with nifedipine (Nife), term, not in labor) was “increase contractile inhibition, by additive or synergistic actions”, the “effect on pinacidil inhibition of contractility” value ([3]; P4 (10^−5M) with pinacidil (10^−6.5M), term, not in labor) was “decreases pinacidil inhibition of contractility” and the “effect on myometrial contractility” value ([3]; P4 soluble and crystalline in ETOH) was “inhibits myometrial contractility”. For the same compound, the half life ([4]; background statement) was “roughly 32 hours” and the half life ([4]; statement under advantages) was “about 30 minutes”.
